# Values of other authors in US11207317B2, “Methylnaltrexone nasal formulations, methods of making, and use thereof” (AptaPharma Inc., priority 2012, dated 2021).
# System: opioid-induced reduction in bowel motility
# Conditions: healthy volunteers; intravenous or oral administration
smiles,measurement,value
"C[N@+]1(CC2CC2)CC[C@]23c4c5ccc(O)c4O[C@H]2C(=O)CC[C@@]3(O)[C@H]1C5 [methylnaltrexone, Methylnaltrexone]",effect on opioid-induced reduction in bowel motility,reverse opioid-induced reduction in bowel motility
